Measured values published in US20250082654A1, “AZD3355 (LESOGABERAN) FOR TREATMENT AND PREVENTION OF NONALCOHOLIC STEATOHEPATITIS (NASH), LIVER FIBROSIS, AND OTHER LIVER CONDITIONS” (Icahn School of Medicine at Mount Sinai, priority 2018, published 2025).

Key:
LX-2 cells = test: Cell cytotoxicity assay (MTS); format: cell-based, human; settings: 0-300 nM, 24, 48 or 72 hours
Protocol: (§1) At the beginning of each experiment, stellate cells (LX-2 cells or phHSCs) were serum-starved overnight in DMEM supplied with 0.1% BSA (without antibiotic) to synchronize metabolic activities of the cells. The cells were then exposed to different working concentration of either AZD3355 or sorafenib for 24, 48 and 72 hours.
(§2) 5,000 LX-2 cells or 10,000 phHSCs were plated per well in 96 well plates. Cells were serum starved overnight in DMEM supplemented with 0.1% BSA (without antibiotic). Cells were then incubated with different concentrations of AZD3355 for indicated durations and MTS assays were accomplished using CellTiter 96 AQueous One Solution Cell Proliferation Assay kit (Promega, WI) according to manufacturer's protocol.

phHSCs = test: Cell cytotoxicity assay (MTS); format: cell-based, human; settings: 30 nM or 100 nM, 48 or 72 hours
Protocol: as §1, §2

Question: How did the “cell cytotoxicity (MTS)” value (LX-2 cells) turn out when NC[C@@H](F)C[PH](=O)O [AZD3355, [(2R)-3-amino-2-fluoropropyl] phosphinic acid] was run?
Answer: no significant cell cytotoxicity observed except for in LX-2 cells at 300 nM

Question: What about the “cell cytotoxicity (MTS)” value (phHSCs) of the same compound?
Answer: no significant cell cytotoxicity
